3 molecules from patent US20200157144A1, “ANTIMICROBIAL PEPTIDOMIMETICS” (priority 2017, published 2020) can be followed below.

Structures are written as SMILES. Converted amounts (≈) assume the structure as drawn. “And” between values parts separate entries of the source, which are not always exact repeats. Equal entries are not always repeated. Where two headings read alike, the source gives them in different places.

Holding throughout (test): microbe, parasite or virus in culture
Assay [1] deals with Mupirocin-resistant MRSA ATCC-BAA-1556. The assay is classed as cell-based, Staphylococcus aureus. The conditions noted are these: Staphylococcus aureus. Here is the method:
(§1) The MICs of test compounds were determined using the microdilution method from the Clinical and Laboratory Standards Institute (CLSI) guidelines (Clinical and Laboratory Standards Institute. Methods for dilution antimicrobial susceptibility tests for bacteria that grow aerobically; approved standard—ninth edition. Document M07-A9. Vol. 32 No. 2. Wayne, Pa.: CLSI; 2012). Briefly, bacteria were grown fresh from frozen stock in Mueller Hinton 2 (MH2) agar at 37° C. After an overnight incubation, 5 bacteria colonies were selected to grow in cation-adjusted MH2 broth in a shaking incubator (140 RPM) at 37° C. Cells were grown to an optical density (OD600) of 0.15-0.16 determined using a spectrophotometer (Molecular Devices Spectra Max Plus), which corresponds to ˜1×10^8 CFU/mL. Test compounds were constituted into 4 mM DMSO stock solutions and then subjected to 2-fold serial dilution in a 96-well plate with concentrations ranging from 100 to 0.195 μM in duplicates. […] of microbial culture containing ˜1×10^6 CFU/mL of microbes in the respective broths was introduced into each well containing 50 μL of compound solution. After an overnight incubation at 35° C., (220 RPM), OD600 measurements were conducted using the microplate spectrophotometer. The MIC was defined as the lowest antibiotic or compound concentration (μM) required to inhibit bacteria growth.
(§2) The 11th well was used as the growth control well (medium with bacterial inoculums, no antibacterial) while the 12th well was the sterility control well (medium only).

Assay [2] concerns Mupirocin-resistant MRSA ATCC-BAA-1750 (USA200). It counts as cell-based, Staphylococcus aureus. The conditions noted are these: Staphylococcus aureus. Here is the method:
as §1, §2

The subject of assay [3] is Mupirocin-susceptible MRSA ATCC-BAA-1756 (USA300). It counts as cell-based, Staphylococcus aureus. The conditions noted are these: Staphylococcus aureus. As to the method: as §1, §2
Assay [4] concerns Mupirocin-susceptible MRSA ATCC-700699 (VISA). The assay is classed as cell-based, Staphylococcus aureus. The conditions noted are these: Staphylococcus aureus. As to the method:
as §1, §2

The subject of assay [5] is Mupirocin-susceptible MRSA ATCC-BAA-1707 (USA400). It counts as cell-based, Staphylococcus aureus. The conditions noted are these: Staphylococcus aureus. Here is the method:
as §1, §2

Assay [6] concerns Mupirocin-susceptible MRSA ATCC-BAA-1681 (USA100). It counts as cell-based, Staphylococcus aureus. The note with it: Staphylococcus aureus. Here is the method: as §1, §2
In assay [7] the test system is Mupirocin-susceptible MRSA ATCC-BAA-2762 (EMRSA15, ST22). The assay is classed as cell-based, Staphylococcus aureus. The conditions noted are these: Staphylococcus aureus. As to the method:
as §1, §2

Assay [8] relates to Mupirocin-susceptible MRSA ATCC-33592 (ST239). The assay is classed as cell-based, Staphylococcus aureus. The note with it: Staphylococcus aureus. As to the method:
as §1, §2

Assay [9] deals with Mupirocin-resistant MRSA ATCC-BAA-1708. It counts as cell-based, Staphylococcus aureus. The conditions noted are these: Staphylococcus aureus. Here is the method: as §1, §2
In assay [10] the test system is Mupirocin-susceptible MRSA ATCC-BAA-1754 (ST45). It counts as cell-based, Staphylococcus aureus. The note with it: Staphylococcus aureus. Here is the method: as §1, §2
Assay [11] relates to S. aureus (ATCC BAA-1556). The note with it: Staphylococcus aureus, ATCCBAA1556, 24 h, read-out: Mean MIC. As to the method:
S. aureus (BAA-1556) was from ATCC. Mupirocin (Cat # M2955) was purchased from TCI chemicals (India) Pvt. […] Ltd, India, Cation adjusted Mueller Hinton broth (CAMHB) and Mueller Hinton Agar (MHA) (Cat # M1657) were from HiMedia Laboratories Pvt. Ltd, India.
The MIC assay was done based on CLSI guidelines in a microtitre plate format (1, 2). Preparation and dilution of Test Item (TI) stock solutions: A 1280 μg/ml stock of Compound 34 was prepared by dissolving 1.28 mg in 1.0 ml of sterile water to obtain the Master Stock (MS) solution. The MS solution was diluted 2-fold to obtain a series of Working Stock (WS) solutions (Table 7). The final concentration of solvent in the assay was 2.5% and the assay volume was […].
Preparing the inoculum: One day before initiation of experiment, an isolated colony of S. aureus (ATCC BAA-1556) was inoculated into sterile CAMHB and incubated at 37° C. to exponential phase. After incubation, the turbidity was adjusted to that of a 0.5 McFarland Standard (approximately equivalent to 1.0×10^8 CFU/ml) and diluted to ˜1.0×10^6 CFU/ml.
MIC Assay: The MIC assay was performed in a 96 well microtitre plate in a total assay volume of 100 μl (Table 7). Each well containing different concentrations of test compound (concentration range between 0.015625 and 16.0 μg/ml) was inoculated with 50 μl of bacterial suspension (prepared from the inoculum grown overnight and adjusted approximately to 5.0×10^5 CFU/ml) along with culture control (CC, culture in broth), broth control (BC, broth only), and vehicle control (VC, 2.5% solvent in broth plus culture). The plate was incubated at 37° C. for 24 hr and turbidity was measured spectrophotometrically (Absorbance microplate reader, BioTek® India, ELx800™) at 600 nm and visually. The experiment was done in duplicates. The inoculum was also plated for enumeration of bacteria. The MIC was defined as the lowest concentration of test compound that prevented bacterial growth (lack of turbidity by OD at 600 nm and visual inspection relative to no growth control).

Another assay relates to S. aureus NARSA VRS2. The assay is classed as cell-based. The conditions noted are these: Staphylococcus aureus; S. aureus NARSA VRS2; CAMHB II; read-out: MIC. As to the method: (§3) The antibacterial potency of Compound 34 was measured using the in vitro broth microdilution assay under assay conditions described by the Clinical and Laboratory Standards Institute. […] The test substance was dissolved in 100% DMSO (unless stated below), suspended completely by sonication or vortexing, diluted by 2-fold serial titrations in the same vehicle, for a total of 11 test concentrations. A 4 μL aliquot of each dilution was added to 196 μL of broth medium seeded with the organism suspension in wells of a 96 well plate (bacterial count: 2-8×10^5 colony forming units/mL final). The final volume was 200 μL in each well and the final DMSO concentration was 2%. The incubation time is 1 day at 36° C. All strains tested underwent aerobic respiration. Following incubation, the test plates were visually examined and wells were scored for growth or complete growth inhibition to define the minimum inhibitory concentration. Each test substance was evaluated in duplicate and the results below are the duplicate test values. Vehicle-control and an active reference agent were used as blank and positive controls, respectively.

A further assay deals with S. aureus NARSA VRS1. The assay is classed as cell-based. The note with it: Staphylococcus aureus; S. aureus NARSA VRS1; CAMHB II; read-out: MIC. Here is the method:
as §3

In the next assay the test system is S. aureus NARSA VRS3a. The assay is classed as cell-based. The note with it: Staphylococcus aureus; S. aureus NARSA VRS3a; CAMHB II; read-out: MIC. Here is the method: as §3
For another assay, the system named is S. aureus ECL 2963646. It counts as cell-based. The note with it: Staphylococcus aureus, ECL2963646; S. aureus ECL 2963646; CAMHB II; read-out: MIC. Here is the method:
as §3

Another assay has as its system S. aureus NARSA VRS11b. The assay is classed as cell-based. The note with it: Staphylococcus aureus; S. aureus NARSA VRS11b; CAMHB II; read-out: MIC. Here is the method:
as §3

For assay [12], the system named is Enterococcus faecalis ATCC 51299. The assay is classed as cell-based. The conditions noted are these: Enterococcus faecalis, ATCC51299. As to the method: (§4) The antibacterial potency of Compound 34 was measured using the in vitro broth microdilution assay under assay conditions described by the Clinical and Laboratory Standards Institute. […] The test substance was dissolved in 100% DMSO (unless stated below), suspended completely by sonication or vortexing, diluted by 2-fold serial titrations in the same vehicle, for a total of 10 test concentrations (final concentrations: 100, 50, 25, 12.5, 6.25, 3.125, 1.56, 0.78, 0.39, 0.2 μM). A 4 μL aliquot of each dilution was added to 196 μL of broth medium seeded with the organism suspension in wells of a 96 well plate (bacterial count: 2-8×10^5 colony forming units/mL final). The final volume was 200 μL in each well and the final DMSO concentration was 2 percent. The incubation time is either 1 or 2 days at 36° C. All strains tested underwent aerobic respiration, except for ATCC BAA-1805 and ATCC 29399. Following incubation, the test plates were visually examined and wells were scored for growth or complete growth inhibition to define the minimum inhibitory concentration. Each test substance was evaluated in duplicate and the results below are the duplicate test values. Vehicle-control and an active reference agent were used as blank and positive controls, respectively.

Assay [13] deals with Enterococcus faecium ATCC BAA-2320. The assay is classed as cell-based. The conditions noted are these: Enterococcus faecium, ATCCBAA2320. As to the method:
as §4

Assay [14] concerns Staphylococcus aureus ATCC BAA-1717. The assay is classed as cell-based. The conditions noted are these: Staphylococcus aureus, ATCCBAA1717. As to the method:
as §4, with “values.” for “values. Vehicle-control and an active reference agent were used as blank and positive controls, respectively.”

Assay [15] deals with Staphylococcus aureus ATCC 19636. It counts as cell-based. The conditions noted are these: Staphylococcus aureus, ATCC19636. Here is the method: as §4, with “values.” for “values. Vehicle-control and an active reference agent were used as blank and positive controls, respectively.”
For assay [16], the system named is Staphylococcus epidermidis ATCC 12228. The assay is classed as cell-based. The conditions noted are these: Staphylococcus epidermidis, ATCC12228. As to the method:
as §4, with “values.” for “values. Vehicle-control and an active reference agent were used as blank and positive controls, respectively.”

Assay [17] deals with Propionibacterium acnes ATCC 29399. The assay is classed as cell-based. The note with it: Cutibacterium acnes, ATCC29399. As to the method:
as §4

Consider `CC(=O)NC[C@H]1CN(c2ccc(N3CCOCC3)c(F)c2)C(=O)O1` [Linezolid], for which the MIC in [1] came out at 6.25 µM (≈ 2.11 µg/mL); in [2], 6.25 µM (≈ 2.11 µg/mL); in [3], 6.25 µM (≈ 2.11 µg/mL); in [4] (Mupirocin-susceptible MRSA ATCC-700699 (VISA), read-out: MIC) it was 3.12 µM (≈ 1.05 µg/mL); in assay [5] it was 6.25 µM (≈ 2.11 µg/mL); in assay [6] it was 6.25 µM (≈ 2.11 µg/mL). For the same molecule, the MIC in assay [7] was 6.25 µM (≈ 2.11 µg/mL); in assay [8], 6.25 µM (≈ 2.11 µg/mL); in [9], 6.25 µM (≈ 2.11 µg/mL); in [10], 6.25 µM (≈ 2.11 µg/mL); in [11], 1 µg/mL and 2.96 µM; in the assay with S. aureus NARSA VRS2, 2 µg/mL and 5.93 µM. Moreover, the MIC was 2 µg/mL and 5.93 µM with S. aureus NARSA VRS1; 4 µg/mL and 11.9 µM in the assay on S. aureus NARSA VRS3a; 2 µg/mL and 5.93 µM in the assay with S. aureus ECL 2963646; 2 µg/mL and 5.93 µM with S. aureus NARSA VRS11b.

Turning to `CN(C)c1cc(NC(=O)CNC(C)(C)C)c(O)c2c1C[C@H]1C[C@H]3[C@H](N(C)C)C(O)=C(C(N)=O)C(=O)[C@@]3(O)C(O)=C1C2=O` [Tigecycline], the MIC in [12] is 0.063 µg/mL and 0.11 µM; in assay [13] it was 0.063 µg/mL and 0.11 µM.

In the case of `CN[C@H](CC(C)C)C(=O)N[C@H]1C(=O)N[C@@H](CC(N)=O)C(=O)N[C@H]2C(=O)N[C@H]3C(=O)N[C@H](C(=O)N[C@H](C(=O)O)c4cc(O)cc(O)c4-c4cc3ccc4O)[C@H](O)c3ccc(c(Cl)c3)Oc3cc2cc(c3O[C@@H]2O[C@H](CO)[C@@H](O)[C@H](O)[C@H]2O[C@H]2C[C@](C)(N)[C@H](O)[C@H](C)O2)Oc2ccc(cc2Cl)[C@H]1O` [Vancomycin], the MIC in assay [1] worked out at 0.78 µM (≈ 1.13 µg/mL); in assay [2], 0.78 µM (≈ 1.13 µg/mL); in assay [3], 0.78 µM (≈ 1.13 µg/mL); in assay [4], 6.25 µM (≈ 9.06 µg/mL); in [5], 0.78 µM (≈ 1.13 µg/mL); in [6], 1.56 µM (≈ 2.26 µg/mL). In addition, the MIC in [7] came out at 0.78 µM (≈ 1.13 µg/mL); in assay [8], 0.78 µM (≈ 1.13 µg/mL); in [9] it was 0.78 µM (≈ 1.13 µg/mL); in [10], 0.78 µM (≈ 1.13 µg/mL); in [14], 1 µg/mL (≈ 0.69 µM); in [15], 1 µg/mL (≈ 0.69 µM). The MIC in [16] was 1 µg/mL (≈ 0.69 µM); in assay [17], 0.5 µg/mL and 0.35 µM.
